These results are taken from patent publication US5576436A, “Fluorescent ligands” (Pharmaceutical Discovery Corporation, priority 1994, dated 1996).

Test [1] deals with Cannabinoid. Put plainly: Radioligand binding, cannabinoid receptor. The conditions noted are these: Table I; read-out: Radiolig. Kd:Ki.
In test [2] the test system is Glycine. Put plainly: Fluorescent ligand binding, glycine receptor (strychnine-insensitive). The conditions noted are these: Table I.
Test [3] addresses NMDA. Put plainly: Fluorescent ligand binding, NMDA receptor complex. The settings on record: Table I. The method, then:
NMDA RECEPTOR COMPLEX LIGAND (spectral shift compound) (PDC 014.041)
(§1) Recommended Assay Conditions:
Incubation buffer: 5 mM Hepes/Tris (pH 7.8 at 25° C.)
Spectra: 335 nm (ex) and 515 nm (em)
(§2) 1. Reconstitution: 10.0 ml of incubation buffer
3. Incubation Time: 2 hours at 25° C.
4. Measure fluorescence intensity: 335 nm (ex) and […]

The target in test [4] is NMDA. The test can be described thus: Radioligand binding, NMDA. The conditions noted are these: Table I; read-out: Radiolig. Kd:Ki.
Test [5] deals with benzodiazepine receptors. The settings on record: cited from earlier work.
Test [6] has as its target Muscarinic-M1. Put plainly: Fluorescent ligand binding, muscarinic-M1 receptor. The conditions noted are these: Table I.
For test [7], the target named is Muscarinic-M1. Put plainly: Radioligand binding, muscarinic-M1. The conditions noted are these: Table I; read-out: Radiolig. Kd:Ki.
The target in test [8] is Peripheral Bzd. Put plainly: Fluorescent ligand binding, peripheral benzodiazepine receptor. The settings on record: Table I. The method, then:
PERIPHERAL BENZODIAZEPINE RECEPTOR LIGAND (PDC 018.091)
as §1
Incubation buffer: 50 Nm Tris-Citrate containing […] MgCL2 (pH 7.0 at 4° C.)
(§3) Spectra: 492 nm (ex) and 516 nm (em)
as §2

Test [9] addresses Peripheral Bzd. Put plainly: Radioligand binding, peripheral benzodiazepine receptor. The conditions noted are these: Table I; read-out: Radiolig. Kd:Ki.
Test [10] relates to Kappa 1. The test can be described thus: Fluorescent ligand binding, kappa1 opioid receptor. The settings on record: result in words.
The target in test [11] is kappa1 opioid receptor. Put plainly: Radioligand ([^3 H]U69,593) binding, kappa1 opioid receptor. The settings on record: read-out: IC50 value versus radioligand binding.
Test [12] addresses Adenosine-A2a. Put plainly: Fluorescent ligand binding, adenosine-A2a receptor. The conditions noted are these: Table I. The protocol:
Recommended Assay Conditions for ADENOSINE-A2A RECEPTOR LIGAND (PDC 018.075)
Incubation buffer: 50 mM Tris-HCL containing 10mM MgCl2, (pH 7.4 at 25° C.)
as §3, §2
3. Incubation Time: 90 minutes at 25° C.

Test [13] has as its target Adenosine-A2a. Put plainly: Radioligand binding, adenosine-A2a. The conditions noted are these: Table I; read-out: Radiolig. Kd:Ki.
For test [14], the target named is Dopamine 2. The test can be described thus: Fluorescent ligand binding, dopamine 2 (direct fluorescence measurement). The settings on record: Table I.
Test [15] addresses Dopamine 2. The test can be described thus: Radioligand binding, dopamine 2. The conditions noted are these: Table I; read-out: Radiolig. Kd:Ki.
In test [16] the target is Dopamine 1. The test can be described thus: Fluorescent ligand binding, dopamine 1 (direct fluorescence measurement). The settings on record: Table I.
For test [17], the target named is Dopamine 1. Put plainly: Radioligand binding, dopamine 1. The conditions noted are these: Table I; read-out: Radiolig. Kd:Ki.
[18] abbreviates: density of binding of the ligand.
Setting [19] is: centri., quench, read-out: Fluores. Kd.
Where [20] appears, read: centrifugation, read-out: Fluores. Kd.

Like-named read-outs stand apart in the source and are kept apart here.

Take `CCCCC/C=C\C/C=C\C/C=C\C/C=C\CCCC(=O)NCCNc1ccc([N+](=O)[O-])c2nonc12` [PDC 014.063]: the Ki in test [1] was found to be 52 nM.

Consider `O=C(NCCCCCCNc1ccc([N+](=O)[O-])c2nonc12)c1cc(O)c2c(Cl)cc(Cl)cc2n1` [PDC 002.083], for which, in test [2] (setting [18]), the Bmax is recorded as 14.5 pmol/mg prot. In [2] (read-out: Fluores. Kd, centri., quench), the Kd is 750 nM.

For `CN(C)c1cccc2c(S(=O)(=O)NCCCNC(Cc3ccccc3)c3ccccc3)cccc12` (centres unmarked) [PDC 014.041], the equilibrium dissociation constant (Kd) in test [3] (centri., spectral shift, read-out: Fluores. Kd) is 1000 nM. For the same molecule, in [3] (setting [18]), the Bmax is recorded as 1.9 pmol/mg prot. In [4], the inhibition constant (Ki) amounted to 45 nM.

Consider `NCCCC(=O)O` [GABA], for which, in [5] (rat brain membranes), the “effect on [^3 H]alprazolam binding” value is on record as “enhanced”.

Regarding `O=[N+]([O-])c1ccc(NCCN2CCOCC2)c2nonc12` [PDC 018.039], the dissociation constant Kd in test [6] (setting [19]) was 985 nM. In test [6] (setting [18]), the Bmax is given as 0.20 pmol/mg prot. Besides, in test [7], the inhibition constant Ki was 1700 nM.

As for `CCC(C)N(C)C(=O)c1cc2ccccc2c(-c2cc(NC(=O)c3ccc4c(c3)C(=O)OC43c4ccc(O)cc4Oc4cc(O)ccc43)ccc2F)n1` (centres unmarked) [PDC 018.091], the dissociation constant Kd in [8] (setting [20]) came to 40 nM. The molecule further came in with a Bmax in test [8] (setting [18]) of 2.3 pmol/mg prot. The Ki in [9] was found to be 2 nM.

For the molecule `CN(C(=O)Cc1cc(Cl)c(Cl)cc1NC(=O)CCCNC(=O)c1ccc2c(c1)C(=O)OC21c2ccc(O)cc2Oc2cc(O)ccc21)[C@@H]1CCCC[C@H]1N1CCCC1` [1R,2R-trans-4,5-dichloro-2-(4-fluorescein-5-carboxamido)-n-butaniado)-(N-methyl)-2-(1-pyrrolidnyl)-cyclohexyl)benzeneacetamide], the “Measurement using the fluorescence assay” value in test [10] was “confirmed the radioligand results”. Further, the IC50 in test [11] (1R,2R enantiomer) was 3230 nM; in [11] (bound in parentheses), > 1000 nM.

As to `CCNC(=O)[C@H]1O[C@@H](n2cnc3c(N)nc(NCCc4ccc(CCC(=O)NCCNC(=S)Nc5ccc6c(c5)C(=O)OC65c6ccc(O)cc6Oc6cc(O)ccc65)cc4)nc32)[C@H](O)[C@@H]1O` [PDC 018.075], in [12] (setting [20]), the Kd worked out at 57 nM. Also, the Bmax in [12] (setting [18]) was found to be 2.3 pmol/mg prot. For the same molecule, in test [13], the inhibition constant (Ki) was found to be 15 nM.

In the case of `Cc1nnc2n1-c1ccc(Cl)cc1C(c1ccccc1)=NC2` [Alprazolam, alprazolam], in [5] (nonequilibrium and equilibrium binding conditions), the “specific to nonspecific (signal to noise) binding ratios” value is “high”. Besides, the “affinity for benzodiazepine receptors” value in test [5] (rat brain membranes, saturable and specific) is listed as “low nanomolar affinity”. Moreover, in test [5] (rat brain), the “selectivity in vitro for benzodiazepine receptors” value is “selective and specific ligand”.

For the molecule `CCN(CC)CCNC(=O)c1cc(Cl)c(NC(=O)CCCCCNc2ccc([N+](=O)[O-])c3nonc23)cc1OC` [PDC 014.036], in test [14] (setting [19]), the Kd came out at 500 nM. The Bmax in test [14] (setting [18]) is 0.13 pmol/mg prot. The inhibitory constant (Ki) in test [15] came to 90 nM.

For the molecule `CCCCC/C=C\C/C=C\C/C=C\C/C=C\CCCC(=O)NCCNS(=O)(=O)c1cccc2c(N(C)C)cccc12` [PDC 014.064], the Ki in test [1] came to 52 nM.

Consider `O=[N+]([O-])c1ccc(NCCN2CCN(CCCN3c4ccccc4Sc4ccc(C(F)(F)F)cc43)CC2)c2nonc12` [PDC 014.043], for which the Kd in [16] (setting [19]) was 190 nM. In addition, the Bmax in test [16] (setting [18]) is 69 pmol/mg prot. In test [17], the inhibition constant (Ki) was 11 nM.

Usually Ki stands for a measure of affinity in units of concentration, obtained from inhibition or displacement. Broadly, the Kd is the constant that tells how readily two partners part at equilibrium. In general, IC50 refers to the midpoint of a concentration-inhibition curve.
